How the values were obtained:
Assay in all cases: drug sensitivity score (DSS) (DSS (unitless, 0-50 scale)); higher = more sensitive (stronger viability inhibition); extreme values may be limits of the assay
Conditions in all cases: 72 h; culture: 2D
WM165 = test system: WM165
Summary of the method: (§1)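 Viability was measured by CellTiter-Glo luminescence after 72 h at 37 °C in 384-well plates holding a 527-compound oncology library, with patient-derived melanoma cultures (1000–1500 cells per well) and melanoma cell lines grown in 2D. Every compound was tested at five concentrations spanning a 10,000-fold range. The drug sensitivity score, a modified area under the curve, came from dose-response curves fitted with in-house Breeze software.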

FM-MEL-3 = test system: FM-MEL-3
Summary of the method: as §1

WM852 = test system: WM852
Summary of the method: as §1

SK-MEL-28 = test system: SK-MEL-28
Summary of the method: as §1

FM-MEL-2 = test system: FM-MEL-2
Summary of the method: as §1

FM-MEL-6 = test system: FM-MEL-6
Summary of the method: as §1

Bowes = test system: Bowes
Summary of the method: as §1

SK-MEL-2 = test system: SK-MEL-2
Summary of the method: as §1

SMILES	drug sensitivity score (WM165)	drug sensitivity score (FM-MEL-3)	drug sensitivity score (WM852)	drug sensitivity score (SK-MEL-28)	drug sensitivity score (FM-MEL-2)	drug sensitivity score (FM-MEL-6)	drug sensitivity score (Bowes)	drug sensitivity score (SK-MEL-2)
COc1cc2nccc(Oc3ccc(NC(=O)C4(C(=O)Nc5ccc(F)cc5)CC4)cc3)c2cc1OC [Cabozantinib]	0	2.5	0.8	0	2.2	0.2	2.1	0
CC(=O)O[C@]1(C(C)=O)CC[C@H]2[C@@H]3C=C(C)C4=CC(=O)CC[C@]4(C)[C@H]3CC[C@@]21C [Megestrol acetate]	0	1	0	0	0	0	0	0
CCOC(=O)CCNc1cc(N2CCc3ccccc3CC2)nc(-c2ccccn2)n1 [GSK-J4]	3.2	20.9	2.3	0	1	1.3	11.2	0
CO[C@H]1C[C@@H]2CC[C@@H](C)[C@@](O)(O2)C(=O)C(=O)N2CCCC[C@H]2C(=O)O[C@H]([C@H](C)C[C@@H]2CC[C@@H](O)[C@H](OC)C2)CC(=O)[C@H](C)/C=C(\C)[C@@H](O)[C@@H](OC)C(=O)[C@H](C)C[C@H](C)/C=C/C=C/C=C/1C [Sirolimus]	4.5	0.2	0	0.9	0.2	1.2	0	0
CN(C(=O)c1ccc(F)cc1C(F)(F)F)C1CCN(c2nnc(-c3ccnn3C)c3ccccc23)CC1 [Taladegib]	0	0	0	0	0.4	0	0	0
CONC(=O)c1ccccc1Nc1cc(Nc2cc(C)nn2C(C)C)ncc1Cl	0.1	1.5	0	0	0.2	0	0.5	0
Nc1cc(F)ccc1NC(=O)c1ccc(CNC(=O)/C=C/c2cccnc2)cc1 [Tucidinostat]	7.8	7.7	0	5.6	5.1	7.2	1.9	5
O=C(Nc1cc(Cl)cc2c1[nH]c1cnccc12)c1cccnc1 [PS-1145]	0	0.7	1.3	0	0	0	0	0
C[C@]12CC[C@@H]3c4ccc(O)cc4C[C@@H](CCCCCCCCC[S+]([O-])CCCC(F)(F)C(F)(F)F)[C@H]3[C@@H]1CC[C@@H]2O (some centres undefined) [Fulvestrant]	0	0	0	0	0	0	0	0
C[C@@H]1CN(Cc2ccc(F)cc2)[C@@H](C)CN1C(=O)c1cc2c(C(=O)C(=O)N(C)C)cn(C)c2cc1Cl [Talmapimod]	0	0	0	0	0	0	0	0
CNC(=O)c1nn(C)c2c1C(C)(C)Cc1cnc(Nc3ccc(N4CCN(C)CC4)cc3)nc1-2 [Milciclib]	12	7.5	5.1	8.7	6.5	9	11	7
CCN1CCN(Cc2ccc(Nc3ncc(F)c(-c4cc(F)c5nc(C)n(C(C)C)c5c4)n3)nc2)CC1 [Abemaciclib]	6.6	7.2	5.3	8.7	4	0	9.6	0
Cc1sc2c(c1C)C(c1ccc(Cl)cc1)=N[C@@H](CC(=O)Nc1ccc(O)cc1)c1nnc(C)n1-2 [Birabresib]	12.1	7.6	0	2.9	6.2	6.7	4.5	0
CNC(=O)c1cc(Oc2ccc(NC(=O)Nc3ccc(Cl)c(C(F)(F)F)c3)cc2)ccn1 [Sorafenib]	0	1.4	0	0	1	0	0	0
CNc1nc(-c2ccc3c(N)n[nH]c3c2)cc(N2C[C@@H](C(=O)NC3CCCCC3)CC[C@H]2C)n1	0.4	0	0	1.5	1.8	0	0	0
C[C@@H]1CCN(C(=O)CC#N)C[C@@H]1N(C)c1ncnc2[nH]ccc12 [Tofacitinib]	0	0	0	0	0	0	0	0
NC1(c2ccc(-c3nc4ccn5c(=O)[nH]nc5c4cc3-c3ccccc3)cc2)CCC1 [MK-2206]	1.1	0.9	0.4	2	2.6	1.9	0	0

SMILES	drug sensitivity score (WM165)	drug sensitivity score (FM-MEL-3)	drug sensitivity score (WM852)	drug sensitivity score (SK-MEL-28)	drug sensitivity score (FM-MEL-2)	drug sensitivity score (FM-MEL-6)	drug sensitivity score (Bowes)	drug sensitivity score (SK-MEL-2)
CCN(CC)CCCC(C)Nc1c2ccc(Cl)cc2nc2ccc(OC)cc12 (centres undefined) [Mepacrine]	17.1	9.9	17	10.3	15.1	14.2	19.6	13.6
N#CC[C@H](C1CCCC1)n1cc(-c2ncnc3[nH]ccc23)cn1 [Ruxolitinib]	0	1.4	0.1	0	0	0	0.1	0
O=C(Nc1cc(Oc2cc(F)c(NC(=O)C3(C(=O)Nc4ccc(F)cc4)CC3)cc2F)ccn1)C1CC1 [Altiratinib]	5	9	6.1	0	6.2	7.7	6.4	0
CC1(C)CC[C@]2(NC(=O)C(C)(F)F)CC[C@]3(C)[C@H](C(=O)C=C4[C@@]5(C)C=C(C#N)C(=O)C(C)(C)[C@@H]5CC[C@]43C)[C@@H]2C1 [Omaveloxolone]	20.3	17.4	11.3	15.5	11.2	13.9	18.2	15.7
Nc1ncnc2c1nc(N)n2[C@@H]1O[C@H](CO)[C@@H](O)[C@H]1O [8-amino-adenosine]	23.2	18.5	18.1	22.6	19.4	20.5	16.3	20.9
CCN(CC)CCN(Cc1ccc(-c2ccc(C(F)(F)F)cc2)cc1)C(=O)Cn1c(SCc2ccc(F)cc2)nc(=O)c2c1CCC2 [Darapladib]	0	0	0	0.4	0.8	0.4	0	0.2
Clc1ccccc1C(c1ccccc1)(c1ccccc1)n1cccn1 [TRAM-34]	0	0	0	0	0	0	0	0
CC[C@@](C)(Nc1ccnc(-c2c[nH]c3ncccc23)n1)C(=O)NCC(F)(F)F [Decernotinib]	0	0	0	0.3	0.2	0	0	0
Cn1ncc(Cl)c1-c1cc(C(=O)N[C@H](CN)Cc2cccc(F)c2)sc1Cl [Afuresertib]	1.5	1.9	0.5	1	1.5	2.3	0	0
COCCNCc1ccc(-c2cc3nccc(Oc4ccc(NC(=O)C5(C(=O)Nc6ccc(F)cc6)CC5)cc4F)c3s2)nc1 [Sitravatinib]	2.1	2.6	1.9	2.3	2	2.4	0.6	0
COc1cc2c(cc1-c1c(C)noc1C)ncc1[nH]c(=O)n([C@H](C)c3ccccn3)c12 [I-BET151]	8.7	4.7	0	3.1	5.2	5	4.6	0.3
Nc1cccc2c1CN(C1CCC(=O)NC1=O)C2=O (centres undefined) [Lenalidomide]	0	0	0	0	0	0	0	0
Cc1sc2c(c1C)C(c1ccc(Cl)cc1)=N[C@@H](CC(=O)NCCCCNC(=O)COc1cccc3c1C(=O)N(C1CCC(=O)NC1=O)C3=O)c1nnc(C)n1-2 (some centres undefined) [dBET1]	10.3	7.1	0	3	3.5	4.6	9.1	0
CN1CCN(C(=O)c2ccc3cc(CCNc4ncnc5ccc(C#N)cc45)ccc3c2)CC1 [Senexin B]	0	1.2	0.9	0	1	0.1	0	0
Cc1ncc(Cl)cc1NCc1ccc(C(=O)N[C@@H](CC2CCCC2)C(=O)NC2CC2)s1	0	4.6	0	0	0	0	0	0
Cn1c(Nc2ccc(C(F)(F)F)cc2)nc2cc(Oc3ccnc(-c4ncc(C(F)(F)F)[nH]4)c3)ccc21 [NVP-RAF265]	8.2	9.2	0	2.7	5.5	2	0.1	2.6
